{"source": "ChEMBL document CHEMBL6078630", "about": "“Design, synthesis, and bioactivity investigation of novel cyclic lipopeptide antibiotics targeting top-priority multidrug-resistant gram-negative bacteria” (Eur J Med Chem, 2024)", "key": {"[1]": {"experiment": "Protein binding in human plasma assessed as unbound fraction at 0.2 uM incubated for 6 hrs by LC-MS/MS analysis", "format": "ADME, cell-free"}, "[2]": {"experiment": "Acute toxicity in iv dosed Swiss mouse assessed as maximum tolerated dose measured after 24 hrs", "format": "organism-based", "settings": "in vivo"}, "[3]": {"experiment": "Renal cytotoxicity against HK-2 cells incubated for 72 hrs by CCK8 assay", "format": "toxicity, cell-based", "settings": "human"}, "[4]": {"experiment": "Nephrotoxicity against Sprague-Dawley rat assessed as increase in BUN level at 4 mg/kg, iv administered for 7 days by fully automated biochemistry analyzer XR200PLUS", "format": "toxicity, organism-based", "settings": "in vivo, 168 h, time 7 day"}, "[5]": {"experiment": "Nephrotoxicity against Sprague-Dawley rat assessed as increase in CRE level at 4 mg/kg, iv administered for 7 days by fully automated biochemistry analyzer XR200PLUS", "format": "toxicity, organism-based", "settings": "in vivo, 168 h, time 7 day"}}, "note": "Bridge positions count the residues as written; N and C are the ends. Square brackets hold non-standard residues; d marks the D form. Peptide text beside a SMILES is read from it. * marks the point of attachment. Heptanoyl(6-Me) = CC(C)CCCCC(=O)*; Octanoyl(6-Me) = CCC(C)CCCCC(=O)*; X1 = CC[C@H](C)CCCCC(=O)*; Dab = NCC[C@H](N)C(=O)O", "data": [{"smiles": "CC(C)CCCCC(=O)N[C@@H](CCN)C(=O)N[C@H](C(=O)N[C@@H](CCN)C(=O)N[C@H]1CCNC(=O)[C@H]([C@@H](C)O)NC(=O)[C@H](CCN)NC(=O)[C@H](CCN)NC(=O)[C@H](CC(C)C)NC(=O)[C@@H](Cc2ccccc2)NC(=O)[C@H](CCN)NC1=O)[C@@H](C)O", "note": "({Heptanoyl(6-Me)}-[Dab]T[Dab][Dab][Dab][dF]L[Dab][Dab]T; lactam 4-C)", "values": [{"measurement": "fraction unbound at 6 h, 0.2 µM", "setting": "[1]", "result": 0.099}]}, {"smiles": "CCC(C)CCCCC(=O)N[C@@H](CCN)C(=O)N[C@H](C(=O)N[C@@H](CCN)C(=O)N[C@H]1CCNC(=O)[C@H]([C@@H](C)O)NC(=O)[C@H](CCN)NC(=O)[C@H](CCN)NC(=O)[C@H](CC(C)C)NC(=O)[C@@H](CC(C)C)NC(=O)[C@H](CCN)NC1=O)[C@@H](C)O", "note": "(stereo partly drawn) ({Octanoyl(6-Me)}-[Dab]T[Dab][Dab][Dab][dL]L[Dab][Dab]T; lactam 4-C)", "values": [{"measurement": "MTD at 24 h", "setting": "[2]", "result": 5.3, "unit": "mg/kg"}]}, {"smiles": "CC(C)CCCCC(=O)N[C@@H](CCN)C(=O)N[C@H](C(=O)N[C@@H](CCN)C(=O)N[C@H]1CCNC(=O)[C@H]([C@@H](C)O)NC(=O)[C@H](CCN)NC(=O)[C@H](CCN)NC(=O)[C@H](CC(C)C)NC(=O)[C@@H](Cc2ccccc2)NC(=O)[C@H](CCN)NC1=O)[C@@H](C)O.CC[C@H](C)CCCCC(=O)N[C@@H](CCN)C(=O)N[C@H](C(=O)N[C@@H](CCN)C(=O)N[C@H]1CCNC(=O)[C@H]([C@@H](C)O)NC(=O)[C@H](CCN)NC(=O)[C@H](CCN)NC(=O)[C@H](CC(C)C)NC(=O)[C@@H](Cc2ccccc2)NC(=O)[C@H](CCN)NC1=O)[C@@H](C)O", "note": "(X1-[Dab]T[Dab][Dab][Dab][dF]L[Dab][Dab]T; lactam 4-C)", "values": [{"measurement": "MTD at 24 h", "setting": "[2]", "result": 5.4, "unit": "mg/kg"}, {"measurement": "IC50 at 72 h", "setting": "[3]", "result": 66.3, "unit": "µg/mL"}, {"measurement": "Activity", "setting": "[4]", "result": "Toxic"}, {"measurement": "Activity", "setting": "[5]", "result": "Toxic"}]}]}
